Measurements published in patent US8344028B2, “Gamma-amino-butyric acid derivatives as GABAB receptor ligands” (XenoPort, Inc., priority 2009, dated 2013).

Columns and labels:
GABAB receptor [1] = molecular target: T1, GABAB receptor (Rattus norvegicus, UniProt Q9Z0U4); test: [3H]CGP54626 rat brain GABAB receptor binding assay; settings: [3H]CGP54626 rat brain binding assay
T1 construct: from tissue; host or cells: rat cerebral cortex membranes
Procedure: An assay using rat cerebral cortex membranes was used to determine the affinity of GABAB receptor ligands for the GABAB receptor.
An assay buffer of 50 mM Tris pH 7.4 was prepared with 100 μM of isoguvacine, to block GABAA interactions. The assay buffer with isoguvacine was used for dilution of membranes, compounds, and radiolabel.
Rat cerebral cortex membranes were diluted in assay buffer at 1 mg/mL and aliquoted into a 96-well plate at 900 μL/well. Buffer or test compound were added at 20-times final concentration in the buffer at 50 μL/well. Membranes and test compounds or buffer were incubated for 10 min. at room temperature. Radiolableled [S—(R*,R*)]-[3-[[1-(3,4-dichlorophenyl)ethyl]amino]-2-hydroxypropyl](cyclohexylmethyl) phosphinic acid (CGP54626) was then added at 50 μL/well in the buffer at 1-10 nM concentration in 50 μl. The mixture was incubated for 15 min. at room temperature. The assay mixture was filtered using Brandell filtration apparatus and GFB filters, washed twice with 3 mL of 4° C., 50 mM Tris pH 7.4, buffer without isoguvacine. The filters were then dried at room temperature and the dried filters punched out and placed in individual vials. Three (3) mL of scintillation fluid was added to each vial and the radiolabel counted on the scintillation counter. The inverse amount of radiolabel was indicative of binding of a test compound to the GABAB receptor.

[2] = molecular target: T2, recombinant human GABABR1a2 (Homo sapiens, UniProt Q9UBS5); test: cAMP assay for determining GABAB receptor agonist activity; assay type: cell-based; settings: cells expressing recombinant human GABABR1a2; read-out: cAMP EC50
T2 construct: expressed in transfected cells; host or cells: HEK cells
T2 sequence (Q9UBS5 15-961 limits assumed): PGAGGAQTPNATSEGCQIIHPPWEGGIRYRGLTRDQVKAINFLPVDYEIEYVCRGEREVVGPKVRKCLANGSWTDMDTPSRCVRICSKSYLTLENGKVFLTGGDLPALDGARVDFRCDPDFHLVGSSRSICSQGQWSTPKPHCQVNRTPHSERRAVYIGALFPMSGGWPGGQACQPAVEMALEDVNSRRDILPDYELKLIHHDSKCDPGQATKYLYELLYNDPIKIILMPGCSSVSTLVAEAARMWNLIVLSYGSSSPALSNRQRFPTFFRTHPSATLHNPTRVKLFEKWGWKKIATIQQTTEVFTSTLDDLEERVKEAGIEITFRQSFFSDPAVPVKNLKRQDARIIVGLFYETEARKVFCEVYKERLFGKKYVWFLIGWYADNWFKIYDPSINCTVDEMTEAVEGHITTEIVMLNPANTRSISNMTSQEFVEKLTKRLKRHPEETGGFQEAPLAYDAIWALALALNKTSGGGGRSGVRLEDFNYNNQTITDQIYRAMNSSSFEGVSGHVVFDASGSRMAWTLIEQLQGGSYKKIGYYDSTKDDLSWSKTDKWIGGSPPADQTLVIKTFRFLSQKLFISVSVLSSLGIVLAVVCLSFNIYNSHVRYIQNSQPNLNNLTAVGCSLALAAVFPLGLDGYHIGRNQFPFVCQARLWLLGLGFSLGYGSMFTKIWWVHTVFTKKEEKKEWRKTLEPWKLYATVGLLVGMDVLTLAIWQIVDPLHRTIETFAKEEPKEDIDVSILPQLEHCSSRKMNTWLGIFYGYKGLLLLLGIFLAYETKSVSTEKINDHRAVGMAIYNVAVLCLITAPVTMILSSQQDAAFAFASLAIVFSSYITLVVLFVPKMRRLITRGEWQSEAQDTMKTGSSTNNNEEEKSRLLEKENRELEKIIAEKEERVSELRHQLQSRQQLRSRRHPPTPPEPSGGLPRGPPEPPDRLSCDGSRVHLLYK
T2 sequence (O75899 42-941 partner): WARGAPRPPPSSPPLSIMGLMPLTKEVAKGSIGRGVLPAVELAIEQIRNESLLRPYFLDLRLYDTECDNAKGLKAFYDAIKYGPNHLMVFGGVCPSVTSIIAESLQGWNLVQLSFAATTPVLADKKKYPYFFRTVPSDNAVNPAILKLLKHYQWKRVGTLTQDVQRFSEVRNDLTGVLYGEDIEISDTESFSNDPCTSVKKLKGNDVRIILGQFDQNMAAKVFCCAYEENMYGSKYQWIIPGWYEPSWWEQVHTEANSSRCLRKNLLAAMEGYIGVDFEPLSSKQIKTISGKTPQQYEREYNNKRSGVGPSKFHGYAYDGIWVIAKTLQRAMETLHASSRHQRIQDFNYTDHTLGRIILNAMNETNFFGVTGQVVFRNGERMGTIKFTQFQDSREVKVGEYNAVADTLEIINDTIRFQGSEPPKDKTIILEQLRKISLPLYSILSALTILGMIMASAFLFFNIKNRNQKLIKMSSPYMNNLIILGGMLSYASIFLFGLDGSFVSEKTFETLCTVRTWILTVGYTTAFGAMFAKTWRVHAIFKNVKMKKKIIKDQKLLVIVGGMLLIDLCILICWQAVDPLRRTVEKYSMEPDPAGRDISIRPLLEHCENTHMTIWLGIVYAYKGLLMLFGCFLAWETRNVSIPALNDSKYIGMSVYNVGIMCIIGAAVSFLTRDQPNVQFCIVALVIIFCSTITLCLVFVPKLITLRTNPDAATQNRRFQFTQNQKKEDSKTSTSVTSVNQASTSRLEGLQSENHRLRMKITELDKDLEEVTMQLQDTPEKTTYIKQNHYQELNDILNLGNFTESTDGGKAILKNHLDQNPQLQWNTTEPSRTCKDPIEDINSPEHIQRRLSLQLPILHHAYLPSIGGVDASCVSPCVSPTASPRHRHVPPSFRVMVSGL
Procedure: The following procedure was used to determine the level of intracellular cAMP. Recombinant HEK cells expressing the GABAB R1a2 receptor were used in the experiments. cAMP levels were measured using a cAMP XS^+ HitHunter™ Chemiluminescence Assay Kit (90-0075-02, GE Healthcare Biosciences Corp.). Cells were seeded overnight at 5,000 cells per well, in black, clear bottom 96-well plates. The following morning, cells were washed twice with 100 μL PBS per well. Forskolin was weighed out and dissolved in DMSO to a final concentration 100 mM. One-hundred (100) μM forskolin solutions were prepared in PBS with and without test compound at 1-times final concentration. Thirty (30) μL of the test solutions were added to the wells and incubated for 1 h at room temperature. The cAMP concentration was determined according to the protocol described in the cAMP assay kit, maintaining the plate at room temperature and in the dark. Two hours after the final kit reagent was added, the plate bottom was covered with black tape, and the plate read using a 1450 MicroBeta Trilux microplate scintillation and luminescence counter (PerkinElmer, Waltham, Mass.). Each well was read for 6 seconds. The untransformed data was then analyzed.

[3] = molecular target: T2, recombinant human GABABR1a2; test: Ca2+ assay for determining GABAB receptor agonist activity; assay type: cell-based; settings: cells expressing recombinant human GABABR1a2
Procedure: The following procedure was used to determine the GABAB receptor agonist activity of a compound as reflected by activation of Ca^2+ signaling. HEK TREx cells expressing GABABR1a2 under tetracycline induction control, and Gqi chimeric protein (expressed constitutively), allowing GABABR coupling through the Ca^2+ signaling pathway were used in the experiments.
Cells were seeded in media containing tetracycline overnight at 100,000 cells/well, in black, clear-bottom, 96-well plates. The following morning, cells were washed twice with 100 μL HBSS buffer per well. Fluorescent Ca^2+ indicator dye was prepared using the materials and procedure described in the F362056 Fluo-4 NW Calcium Assay Kit (Invitrogen, Carlsbad, Calif.). Ten (10) mL of kit buffer and 100 μl of kit Probenecid were added to individual kit dye vials, and rolled back and forth several times to dissolve the dye. Cells were then loaded into the dye solution at 50 μL per well. The cells and dye were incubated for 30 min at 37° C., and then incubated for an additional 30 min at room temperature in the dark. Test compounds are dissolved in HBSS buffer at twice final concentration. Duplicate wells were used for each unique condition. Solution containing the test compound was added to the wells using a FLEXStation II (Molecular Devices, Sunnyvale, Calif.). Using the instrument in kinetic mode in which each well was read every 2 sec over a total collection time of 50 sec fluorescence was measured using an excitation wavelength 494 nm and a detection wavelength of 516 nm. A normalized fluorescence value for each well was calculated using the following procedure. The difference in fluorescence at 35 sec (usually representing maximal response) and at 15 sec (a time point prior to addition of test compounds) was calculated, divided by the fluorescence at 15 sec, and the result multiplied by 100. The final value represented the percent increase in fluorescence relative to the fluorescence at 15 sec. Data was analyzed using standard procedures.

GABAB receptor [4] = molecular target: GABAB receptor (Homo sapiens, UniProt Q9UBS5); test: GABAB receptor agonist or partial agonist activity by binding, electrophysiology, cAMP and/or Ca2+ assay methods (Examples 83-86); assay type: cell-based
Sequence of GABAB receptor (Homo sapiens, UniProt Q9UBS5) (Q9UBS5 20-961): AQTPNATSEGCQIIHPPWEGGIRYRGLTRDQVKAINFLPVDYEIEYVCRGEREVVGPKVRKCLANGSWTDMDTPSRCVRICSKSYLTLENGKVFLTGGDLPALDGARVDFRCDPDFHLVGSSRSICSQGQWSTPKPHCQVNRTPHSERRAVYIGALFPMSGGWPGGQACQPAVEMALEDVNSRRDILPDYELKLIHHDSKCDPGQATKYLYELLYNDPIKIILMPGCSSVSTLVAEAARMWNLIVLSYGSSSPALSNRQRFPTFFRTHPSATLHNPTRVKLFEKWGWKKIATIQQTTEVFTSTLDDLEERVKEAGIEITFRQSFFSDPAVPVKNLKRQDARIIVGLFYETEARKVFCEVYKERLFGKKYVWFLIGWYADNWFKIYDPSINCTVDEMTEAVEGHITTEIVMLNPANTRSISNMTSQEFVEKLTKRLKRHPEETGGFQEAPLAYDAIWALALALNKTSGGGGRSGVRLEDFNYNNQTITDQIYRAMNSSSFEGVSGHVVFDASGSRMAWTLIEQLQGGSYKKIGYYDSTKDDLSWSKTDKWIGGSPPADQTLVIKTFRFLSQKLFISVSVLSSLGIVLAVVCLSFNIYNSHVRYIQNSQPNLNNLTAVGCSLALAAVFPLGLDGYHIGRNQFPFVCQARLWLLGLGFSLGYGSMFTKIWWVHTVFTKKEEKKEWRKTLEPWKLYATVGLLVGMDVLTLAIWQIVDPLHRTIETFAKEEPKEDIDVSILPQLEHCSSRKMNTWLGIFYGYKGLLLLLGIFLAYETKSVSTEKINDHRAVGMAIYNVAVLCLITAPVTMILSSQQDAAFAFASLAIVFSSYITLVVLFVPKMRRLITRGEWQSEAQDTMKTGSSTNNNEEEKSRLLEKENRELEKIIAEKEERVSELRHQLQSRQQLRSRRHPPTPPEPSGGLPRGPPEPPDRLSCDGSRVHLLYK
Sequence of GABAB receptor (Homo sapiens, UniProt Q9UBS5) (O75899 42-941 partner): as the sequence (O75899 42-941 partner) above
Summary of the method: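 Binding: rat cortex membranes in 50 mM Tris pH 7.4 with 100 μM isoguvacine were preincubated 10 min at RT with compound, then radiolabeled CGP54626 (1-10 nM) was added; filtered and scintillation-counted. cAMP: GABAB R1a2 HEK cells, 1 h RT with 100 μM forskolin, chemiluminescence.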

[5] = Bioavailability following oral administration to rats; settings: rat, in vivo
Procedure: Rats were obtained commercially and were pre-cannulated in the jugular vein. Animals were conscious at the time of the experiment. All animals were fasted overnight and until 4 hours post-dosing of a compound.
Rat blood samples (0.3 mL/sample) were collected from all animals prior to dosing and at different time-points up to 24 h post-dose into tubes containing EDTA. Two aliquots (100 μL each) were quenched with 300 μL methanol and stored at −20° C. prior to analysis.
To prepare analysis standards, 90 μL of rat blood was quenched with 300 μL methanol followed by 10 μL of spiking standard and/or 20 μL of internal standard. The sample tubes were vortexed for at least 2 min and then centrifuged at 3400 rpm for 20 min. The supernatant was then transferred to an injection vial or plate for analysis by LC-MS-MS.
To prepare samples for analysis, 20 μL of internal standard was added to each quenched sample tube. The sample tubes were vortexed for at least 2 min and then centrifuged at 3400 rpm for 20 min. The supernatant was then transferred to an injection vial or plate for analysis by LC-MS-MS.
LC/MS/MS analysis was performed using an API 2000 or API 4000 mass spectrometer equipped with a Shimadzu and or Agilent HPLC system are used for determination concentration of compounds in rat blood. A Varian Polaris C18, 3μ 50×4.6 mm column was used. 0.1% Formic acid in water and acetonitrile were applied as the mobile phase. Runs were 4.0 min. […] L-4-Chlorophenylalanine was used as an internal standard at m/z 200.00/154.00.
Non-compartmental analysis was performed using WinNonlin software (v.3.1 Professional Version, Pharsight Corporation, Mountain View, Calif.) on individual animal profiles. […]
The oral bioavailability (F %) of a compound was determined by comparing the area under the compound concentration vs time curve (AUC) following oral administration of a prodrug of a GABAB ligand with the AUC of the compound concentration vs time curve following intravenous administration of the GABAB ligand on a dose normalized basis.

[6] = system: S. murinus (house musk shrew); settings: subcutaneously 30 minutes prior to challenge at 1, 3, and 10 mg/kg; reduced from about 23; cited from earlier work
[7] = system: GABAB(1)+/- and GABAB(1)+/+ mice; settings: 9.6 mg/kg, cited from earlier work

T1 sequence (Q9Z0U4 20-960): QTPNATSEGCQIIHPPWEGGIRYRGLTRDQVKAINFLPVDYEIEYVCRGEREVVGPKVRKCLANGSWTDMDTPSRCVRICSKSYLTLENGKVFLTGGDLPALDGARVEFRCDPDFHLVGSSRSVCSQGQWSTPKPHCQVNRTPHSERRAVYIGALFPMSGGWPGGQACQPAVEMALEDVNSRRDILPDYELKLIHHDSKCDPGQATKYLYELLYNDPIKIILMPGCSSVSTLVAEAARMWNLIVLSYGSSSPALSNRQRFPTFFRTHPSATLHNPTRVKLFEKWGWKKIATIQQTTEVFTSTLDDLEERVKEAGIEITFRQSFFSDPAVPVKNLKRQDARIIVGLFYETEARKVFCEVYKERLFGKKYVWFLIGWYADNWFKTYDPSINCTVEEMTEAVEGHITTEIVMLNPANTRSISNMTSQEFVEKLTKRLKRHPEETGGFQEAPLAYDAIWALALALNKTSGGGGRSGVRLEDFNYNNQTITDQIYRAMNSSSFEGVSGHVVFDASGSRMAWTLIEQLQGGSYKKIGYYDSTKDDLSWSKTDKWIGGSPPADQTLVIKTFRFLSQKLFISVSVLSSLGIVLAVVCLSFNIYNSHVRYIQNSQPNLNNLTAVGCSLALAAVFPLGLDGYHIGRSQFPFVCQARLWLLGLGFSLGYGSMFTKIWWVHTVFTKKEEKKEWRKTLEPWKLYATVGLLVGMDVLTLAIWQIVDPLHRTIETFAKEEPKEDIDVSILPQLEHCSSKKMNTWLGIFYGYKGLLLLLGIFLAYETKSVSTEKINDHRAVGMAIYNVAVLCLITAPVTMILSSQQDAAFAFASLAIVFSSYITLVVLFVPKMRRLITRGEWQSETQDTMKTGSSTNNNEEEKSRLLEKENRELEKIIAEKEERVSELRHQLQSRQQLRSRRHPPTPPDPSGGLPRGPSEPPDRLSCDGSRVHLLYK
T1 sequence (O88871 41-940 partner): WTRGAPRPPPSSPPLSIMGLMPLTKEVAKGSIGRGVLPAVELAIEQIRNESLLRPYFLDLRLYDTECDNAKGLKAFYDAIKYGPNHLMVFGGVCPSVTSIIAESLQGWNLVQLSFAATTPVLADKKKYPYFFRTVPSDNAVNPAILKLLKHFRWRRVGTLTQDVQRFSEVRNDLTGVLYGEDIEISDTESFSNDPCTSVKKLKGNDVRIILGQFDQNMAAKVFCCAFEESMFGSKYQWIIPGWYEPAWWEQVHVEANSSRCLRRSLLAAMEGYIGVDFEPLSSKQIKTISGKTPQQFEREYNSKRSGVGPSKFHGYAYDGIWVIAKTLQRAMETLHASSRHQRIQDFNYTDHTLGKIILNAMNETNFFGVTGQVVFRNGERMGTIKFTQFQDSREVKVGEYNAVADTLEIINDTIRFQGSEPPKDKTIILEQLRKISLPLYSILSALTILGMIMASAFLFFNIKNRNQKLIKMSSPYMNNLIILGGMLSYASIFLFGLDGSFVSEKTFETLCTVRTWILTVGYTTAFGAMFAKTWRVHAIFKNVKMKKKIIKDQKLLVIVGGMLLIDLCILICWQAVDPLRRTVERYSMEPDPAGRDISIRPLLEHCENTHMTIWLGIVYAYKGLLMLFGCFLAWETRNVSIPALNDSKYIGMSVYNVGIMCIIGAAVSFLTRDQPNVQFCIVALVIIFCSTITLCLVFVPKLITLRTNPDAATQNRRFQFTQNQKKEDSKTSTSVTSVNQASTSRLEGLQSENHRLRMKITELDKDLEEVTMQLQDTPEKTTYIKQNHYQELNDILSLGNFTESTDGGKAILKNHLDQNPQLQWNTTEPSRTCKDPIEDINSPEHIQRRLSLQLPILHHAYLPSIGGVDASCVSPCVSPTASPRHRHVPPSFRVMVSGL

| SMILES | IC50 (GABAB receptor [1]) [nM] | EC50 [2] [nM] | EC50 [3] [nM] | GABAB receptor agonist or partial agonist activity (GABAB receptor [4]) | oral bioavailability (F %) [5] | number of emetic episodes [6] | hypothermia ([7]; GABAB(1)+/- and GABAB(1)+/+ but not GABAB(1)-/- mice) | time after administration at which hypothermia reaches its minimum [7] [min] |
| --- | --- | --- | --- | --- | --- | --- | --- | --- |
| Cl.NC[C@H](CC(=O)O)c1ccc(Cl)c(NCc2ccncc2)c1 [Example 57, (3R)-4-Amino-3-{4-chloro-3-[(4-pyridylmethyl)amino]phenyl}butanoic acid hydrochloride] | < 25000 | < 100 | < 700 | agonist or partial agonist activity |  |  |  |  |
| Cl.NC[C@H](CC(=O)O)c1ccc(Cl)c(NCc2cnc[nH]2)c1 [Example 60, (3R)-4-Amino-3-{4-chloro-3-[(imidazol-5-ylmethyl)amino]phenyl}butanoic acid hydrochloride] | < 25000 | < 100 | < 700 | agonist or partial agonist activity |  |  |  |  |
| Cl.NC[C@H](CC(=O)O)c1ccc(Cl)c(-c2ccc(C(=O)O)s2)c1 [Example 67, 5-{5-[(1R)-2-Amino-1-(carboxymethyl)ethyl]-2-chlorophenyl}thiophene-2-carboxylic acid hydrochloride] | < 25000 | < 100 | < 700 | agonist or partial agonist activity |  |  |  |  |
| C[C@H](N)C(=O)NC[C@H](CC(=O)O)c1ccc(Cl)c(OCc2ccncc2)c1.Cl [Example 73, (3R)-4-((2S)-2-Aminopropanoylamino)-3-[4-chloro-3-(4-pyridylmethoxy)phenyl]butanoic acid hydrochloride] |  |  |  |  | greater than 10% |  |  |  |
| Cl.NC(=O)CC[C@H](N)C(=O)NC[C@H](CC(=O)O)c1ccc(Cl)c(-c2ccc(C(=O)O)s2)c1 [Example 80] |  |  |  |  | greater than 10% |  |  |  |
| NCC(CC(=O)O)c1ccc(Cl)cc1 (centres unmarked) [baclofen] |  |  |  |  |  | about 13 | marked hypothermia | 60 to 80 |
